Results on 36 molecules are retold here after patent publication US20240101531A1, “PYRIDINAMINE DERIVATIVES AND THEIR USE AS POTASSIUM CHANNEL MODULATORS” (Xenon Pharmaceuticals Inc., priority 2022, published 2024).

For the test, the target named is human KV7.2/KV7.3 (Homo sapiens (Human), UniProt O43525+O43526). The experiment in a line: Potassium flux assay (IPG-2 AM dye). Type of test: cell-based. Conditions: TREX HEK 293 or HEK 293 cells expressing human KV7.2/KV7.3; arithmetic mean values. An excerpt:
This potassium flux assay employs the cell-permeable, potassium-sensitive dye, IPG-2 AM, to quantify potassium ion flux through potassium channels.
In general, TREX HEK 293 or HEK 293 cells were stably transfected with either an inducible or non-inducible expression vector containing the full-length cDNA coding for the desired human KV7.2/KV7.3 or in combination with another full-length cDNA for a second desired human KV7 potassium channel. Potassium channel-expressing cell lines were induced with tetracycline (1 μg/mL), if required, and plated on 384-well poly-D-lysine (PDL)-coated plates in culture media (DMEM, containing 10% FBS and 1% L-glutamine). After overnight incubation, culture media was removed and cells were loaded with 5 μM IPG-2 AM dye for 1 hour in Assay buffer (140 mM NaCl, 20 mM RbCl, 2 mM CaCl2, 1 mM MgCl2, 10 mM HEPES (4-(2-hydroxyethyl)-1-piperazineethanesulfonic acid buffer), 10 mM glucose, adjusted with Tris to pH 7.4). Excess dye was removed, and cells incubated at room temperature for 20 minutes with or without test compound. A Hamamatsu FDSS μCell was used to perform a 1:1 addition of K challenge buffer (150 mM NaCl, 10 mM HEPES, 2 mM CaCl2, 10 mM KCl, 1 mM MgCl2, 10 mM glucose, adjusted with Tris to pH 7.4 for human KV7.2/KV7.3, and simultaneously read plates at excitation wavelength of 530 nm and emission wavelength of 558 nm. Non-potassium channel-mediated potassium influx was determined in the presence of DMSO, and maximal influx was determined in the presence of a known KV7.x channel modulator. For each test compound, a concentration response curve was generated with 16 concentrations points, 2-fold serial dilution starting at 30 μM and an EC50 value was determined.

The structures appear in SMILES notation. pEC50: −log10 of the molar value. Where a name gives a salt, the structure may show the parent alone.

A word on the pEC50: it is the negative decadic logarithm of the EC50, by convention in mol/L. On to `CN1C(=O)CCC1COc1ccc2c(Nc3ccc(Cl)nc3)nccc2c1` (stereo not drawn) [Example 53, 5-(((1-((6-chloropyridin-3-yl)amino)isoquinolin-6-yl)oxy)methyl)-1-methylpyrrolidin-2-one], for which the negative logarithm of the EC50 (pEC50) was 5.00 to 6.00. The result for `COc1cc(Nc2nccc3cc(OCc4cnn(C)c4)ccc23)cnc1Cl` [Example 54, N-(6-chloro-5-methoxypyridin-3-yl)-6-((1-methyl-1H-pyrazol-4-yl)methoxy)isoquinolin-1-amine] reads more than 6.00; that for `COc1cc(Nc2nccc3cc(OCc4cnn(C)c4)ccc23)cnc1C` [Example 55, N-(5-methoxy-6-methylpyridin-3-yl)-6-((1-methyl-1H-pyrazol-4-yl)methoxy)isoquinolin-1-amine formate], more than 6.00; that for `FC1(COc2ccc3c(Nc4cnc(Cl)nc4)nccc3c2)COC1` [Example 56, N-(2-chloropyrimidin-5-yl)-6-((3-fluorooxetan-3-yl)methoxy)isoquinolin-1-amine], more than 6.00. As to `Cc1ncc(Nc2nccc3cc(OCC4(F)COC4)ccc23)cn1` [Example 57, 6-((3-fluorooxetan-3-yl)methoxy)-N-(2-methylpyrimidin-5-yl)isoquinolin-1-amine], the pEC50 is 5.00 to 6.00. The result for `Cc1ncc(Nc2nccc3cc(OCC4(F)CNC4)ccc23)cn1` [Example 58, 6-((3-fluoroazetidin-3-yl)methoxy)-N-(2-methylpyrimidin-5-yl)isoquinolin-1-amine] reads not above 4.52; that for `FC1(COc2ccc3c(Nc4ccc(Cl)nc4)nccc3c2)CNC1` [Example 59, N-(6-chloropyridin-3-yl)-6-((3-fluoroazetidin-3-yl)methoxy)isoquinolin-1-amine hydrochloride], 4.52 to 5.00. The figure for `N#CC1(Oc2ccc3c(Nc4cnc(Cl)nc4)nccc3c2)CC1` [Example 60, 1-((1-((2-chloropyrimidin-5-yl)amino)isoquinolin-6-yl)oxy)cyclopropane-1-carbonitrile] is 5.00 to 6.00; for `NC(=O)C1(Oc2ccc3c(Nc4cnc(Cl)nc4)nccc3c2)CC1` [Example 61, 1-((1-((2-chloropyrimidin-5-yl)amino)isoquinolin-6-yl)oxy)cyclopropane-1-carboxamide] it is 5.00 to 6.00. `Cn1nc(COc2ccc3c(Nc4ccc(Cl)nc4)nccc3c2)cc1C#N` [Example 62, 3-(((1-((6-chloropyridin-3-yl)amino)isoquinolin-6-yl)oxy)methyl)-1-methyl-1H-pyrazole-5-carbonitrile]: the pEC50 is 5.00 to 6.00.

For the molecule `Cc1nnc(COc2ccc3c(Nc4ccc(Cl)nc4)nccc3c2)o1` [Example 63, N-(6-chloropyridin-3-yl)-6-((5-methyl-1,3,4-oxadiazol-2-yl)methoxy)isoquinolin-1-amine], the pEC50 is 5.00 to 6.00.

`N#C[C@H]1C[C@](F)(COc2ccc3c(Nc4cnc(Cl)nc4)nccc3c2)C1` [Example 64, (1s,3s)-3-(((1-((2-chloropyrimidin-5-yl)amino)isoquinolin-6-yl)oxy)methyl)-3-fluorocyclobutane-1-carbonitrile]: the pEC50 is more than 6.00. For the molecule `Cn1cncc1COc1ccc2c(Nc3ccc(Cl)nc3)nccc2c1` [Example 65, N-(6-chloropyridin-3-yl)-6-((1-methyl-1H-imidazol-5-yl)methoxy)isoquinolin-1-amine], the pEC50 was more than 6.00. As to `FC(F)COc1ccc2c(Nc3cnc(Cl)nc3)nccc2c1` [Example 66, N-(2-chloropyrimidin-5-yl)-6-(2,2-difluoroethoxy)isoquinolin-1-amine], the pEC50 was more than 6.00. As for `COc1ccc(Nc2nccc3cc(OCC4(C)COC4)ccc23)cn1` [Example 67, N-(6-methoxypyridin-3-yl)-6-((3-methyloxetan-3-yl)methoxy)isoquinolin-1-amine], the pEC50 was not above 4.52. The result for `FC1(COc2ccc3c(Nc4cnc(Cl)nc4)nccc3c2)CC1` [Example 68, N-(2-chloropyrimidin-5-yl)-6-((1-fluorocyclopropyl)methoxy)isoquinolin-1-amine] reads more than 6.00; that for `Oc1ccc2c(Nc3ccc(Cl)nc3)nccc2c1` [Example 69, 1-((6-chloropyridin-3-yl)amino)isoquinolin-6-ol], 4.52 to 5.00; that for `Clc1ccc(Nc2nccc3cc(OCCN4CC5(CCO5)C4)ccc23)cn1` [Example 70, 6-(2-(1-oxa-6-azaspiro[3.3]heptan-6-yl)ethoxy)-N-(6-chloropyridin-3-yl)isoquinolin-1-amine], 4.52 to 5.00. The figure for `Clc1ccc(Nc2nccc3cc(OCCN4CC5(CCC5)C4)ccc23)cn1` [Example 71, 6-(2-(2-azaspiro[3.3]heptan-2-yl)ethoxy)-N-(6-chloropyridin-3-yl)isoquinolin-1-amine] is 4.52 to 5.00; for `COC1CN(CCOc2ccc3c(Nc4ccc(Cl)nc4)nccc3c2)C1` [Example 72, N-(6-chloropyridin-3-yl)-6-(2-(3-methoxyazetidin-1-yl)ethoxy)isoquinolin-1-amine] it is 4.52 to 5.00. The figure for `Clc1ccc(Nc2nccc3cc(OCCN4CC5(COC5)C4)ccc23)cn1` [Example 73, 6-(2-(2-oxa-6-azaspiro[3.3]heptan-6-yl)ethoxy)-N-(6-chloropyridin-3-yl)isoquinolin-1-amine] is not above 4.52. As for `Clc1ccc(Nc2nccc3cc(OCCn4ccnc4)ccc23)cn1` [Example 74, 6-(2-(1H-imidazol-1-yl)ethoxy)-N-(6-chloropyridin-3-yl)isoquinolin-1-amine], the negative logarithm of the EC50 (pEC50) is not above 4.52. As to `O=c1cc[nH]n1CCOc1ccc2c(Nc3ccc(Cl)nc3)nccc2c1` [Example 75, 2-(2-((1-((6-chloropyridin-3-yl)amino)isoquinolin-6-yl)oxy)ethyl)-1,2-dihydro-3H-pyrazol-3-one], the pEC50 is 5.00 to 6.00. The figure for `Clc1ccc(Nc2nccc3cc(OCc4ccccc4)ccc23)cn1` [Example 76, 6-(benzyloxy)-N-(6-chloropyridin-3-yl)isoquinolin-1-amine] is not above 4.52. The figure for `N#CC1(COc2ccc3c(Nc4ccc(Cl)nc4)nccc3c2)CCC1` [Example 77, 1-(((1-((6-chloropyridin-3-yl)amino)isoquinolin-6-yl)oxy)methyl)cyclobutane-1-carbonitrile] is more than 6.00. Consider `CC(C)(C#N)COc1ccc2c(Nc3ccc(Cl)nc3)nccc2c1` [Example 78, 3-((1-((6-chloropyridin-3-yl)amino)isoquinolin-6-yl)oxy)-2,2-dimethylpropanenitrile], for which the pEC50 is 5.00 to 6.00. Turning to `N#CC1(COc2ccc3c(Nc4ccc(Cl)nc4)nccc3c2)CC1` [Example 80, 1-(((1-((6-chloropyridin-3-yl)amino)isoquinolin-6-yl)oxy)methyl)cyclopropane-1-carbonitrile], the pEC50 is more than 6.00. Take `Clc1ccc(Nc2nccc3cc(OCC4CC5(COC5)C4)ccc23)cn1` [Example 81, 6-((2-oxaspiro[3.3]heptan-6-yl)methoxy)-N-(6-chloropyridin-3-yl)isoquinolin-1-amine]: the pEC50 is 5.00 to 6.00. On to `Clc1ccc(Nc2nccc3cc(OCn4cccn4)ccc23)cn1` [Example 82, 6-((1H-pyrazol-1-yl)methoxy)-N-(6-chloropyridin-3-yl)isoquinolin-1-amine], for which the pEC50 is 5.00 to 6.00.

In the case of `FC1(F)CCCC(Oc2ccc3c(Nc4ccc(Cl)nc4)nccc3c2)C1` (stereo not drawn) [Example 83, N-(6-chloropyridin-3-yl)-6-((3,3-difluorocyclohexyl)oxy)isoquinolin-1-amine], the pEC50 is 5.00 to 6.00. The figure for `Clc1ccc(Nc2nccc3cc(OCc4cnn5c4OCCC5)ccc23)cn1` [Example 84, N-(6-chloropyridin-3-yl)-6-((6,7-dihydro-5H-pyrazolo[5,1-b][1,3]oxazin-3-yl)methoxy)isoquinolin-1-amine] is 4.52 to 5.00; for `N#CC1(COc2ccc3c(Nc4ccc(Cl)nc4)nccc3c2)COC1` [Example 85, 3-(((1-((6-chloropyridin-3-yl)amino)isoquinolin-6-yl)oxy)methyl)oxetane-3-carbonitrile] it is more than 6.00. `FC1(F)COCC1Oc1ccc2c(Nc3ccc(Cl)nc3)nccc2c1` (stereo not drawn) [Example 86, N-(6-chloropyridin-3-yl)-6-((4,4-difluorotetrahydrofuran-3-yl)oxy)isoquinolin-1-amine 2,2,2-trifluoroacetate]: the pEC50 is 5.00 to 6.00. The figure for `Cn1cnnc1COc1ccc2c(Nc3ccc(Cl)nc3)nccc2c1` [Example 87, N-(6-chloropyridin-3-yl)-6-((4-methyl-4H-1,2,4-triazol-3-yl)methoxy)isoquinolin-1-amine] is 5.00 to 6.00.

As to `Cc1ncc(Nc2nccc3cc(OCC4(C#N)CC4)ccc23)cn1` [Example 88, 1-(((1-((2-methylpyrimidin-5-yl)amino)isoquinolin-6-yl)oxy)methyl)cyclopropane-1-carbonitrile], the pEC50 is 5.00 to 6.00. The figure for `Clc1ccc(Nc2nccc3cc(OCCC4COC4)ccc23)cn1` [Example 89, N-(6-chloropyridin-3-yl)-6-(2-(oxetan-3-yl)ethoxy)isoquinolin-1-amine] is more than 6.00.
